# Measurements from patent EP1282604B1, “SUBSTITUTED CAPROLACTAM CARBONATES AND ETHERS AND THEIR USE AS ANTI-TUMOR AGENTS” (Novartis AG, priority 2000, dated 2001).
# What was measured:
# [1] = system: MDA-MB-435 human breast carcinoma; assay: Anchorage Dependent Growth Monolayer Assay (ADGMA), MTS readout; assay type: cell-based; conditions: Homo sapiens, 72 h; 3-day exposure, MDA-MB-435 cells; read-out: IC50 values (average ± S.D.) MDA-MB-435
# Excerpt: (§1) As indicated above, all of the compounds of formula I, and their corresponding pharmaceutically acceptable acid addition salts, are anti-tumor agents and are, therefore, useful in inhibiting the growth of various lymphomas, sarcomas, carcinomas, myelomas, and leukemia cell lines. […] This assay was adapted from the 60 cell line assay used by the National Cancer Institute (NCl) with the following modifications: 1) cell lines representative for the important tumor types, viz., MDA-MB-435 human breast, A549 non-small cell lung, H1299 lung, HCT-116 colon and PC-3 prostate carcinomas, and U2OS osteosarcomas were utilized; and 2) a tetrazolium derivative, viz., 3-(4,5-dimethylthiazol-2-yl)-5-(3-carboxymethoxyphenyl)-2-(4-sulfophenyl)-2H-tetrazolium, inner salt (MTS), was utilized to determine cell density.
# (§2) The ADGMA compares the number of viable cells following a 3-day exposure to a test compound relative to a number of cells present at the time the test compound was added. […] The absorbance at 490 nm (A490) of the formazan derivative is proportional to the number of viable cells. The IC50 for a test compound is the concentration of compound required to reduce the final cell number to 50% of the final control cell number. If cell proliferation is inhibited, the assay further defines compounds as cytostatic (cell number after 3-day compound incubation >cell number at time of compound addition) or cytotoxic (cell number after 3-day compound incubation <cell number at time of compound addition).
# (§3) The MDA-MB-435 human breast carcinoma and the A549 non-small cell lung carcinoma lines were obtained from the American Type Culture Collection (ATCC) and used between passages 4-20 following thawing. MDA-MB-435 human breast carcinoma and A549 non-small cell lung carcinoma cells were maintained and plated in DME/F12 medium containing 10% fetal bovine serum, 15 mM HEPES (pH=7.4), 100 units/mL penicillin, and 100 µg/mL streptomycin.
# (§4) Cell lines are trypsinized and counted using a Coulter counter to determine plating densities. Cells are then plated in their respective maintenance media (100 µL/well) in 96 well plates at the following densities: MDA-MB-435 and U2OS, 3,000 cells/well; A549 and HCT-116, 700 cells/well; H1299, 1,000 cells/well; and PC-3, 2500 cells/well. The number of cells plates as determined in preliminary experiments, results in cell densities of 75-90% of confluency by 4 days after plating. Initial cell densities, assayed one day after plating, are roughly 0.15-0.20 absorbance units greater than the media blank. Ninety-six well plates are seeded on day 0 and the test compounds are added on day 1. A control plate is created for each cell line that receives media only in row A and cells in row B. One day following plating, test compounds are added (in a final volume of 100 µL) to the test plates. Control plates receive 10 µL MTS mixture (prepared fresh on day of addition to cell plates at a ratio of 10 µL of a 0.92 mg/mL solution of PMS to a 190 µL of a 2 mg/mL solution of MTS) and 100 µL media. A490 of control plates is read 4 h after MTS addition to determine initial cell density values for each cell line. Three days after addition of test compound, 10 µL/well of MTS mixture is added to the test plates and A490 is read 4 h later. A490 values for wells containing cells are corrected for media absorbance, then normalized to initial density readings to determine percent net growth. IC50 values are determined from graphs of percent net growth as a function of compound concentration. Percent net growth is calculated as (Cell + Drug A490 - Initial A490/Cell + Drug Vehicle A490 - Initial A490) x 100%.
# [2] = system: A549 non-small cell lung carcinoma; assay: as above; assay type: cell-based, human; conditions: Homo sapiens, 72 h; 3-day exposure, A549 cells; read-out: IC50 values (average ± S.D.) A549
# Excerpt: as §1, §2, §3, §4
# [3] = system: H1299 lung carcinoma; assay: as above; assay type: cell-based; conditions: Homo sapiens, NCI-H1299, 72 h; 3-day exposure, H1299 cells; read-out: IC50 values (average ± S.D.) H1299
# Excerpt: as §1, §2
# (§5) The H1299 lung, HCT-116 colon, and PC-3 prostate carcinoma cell lines, and U2OS osteosarcoma cell line were obtained from the American Type Culture Collection (ATCC) and used between passages 4-20 following thawing. H1299 and HCT-116 cells were maintained in RPMI 1640 containing 10% FBS, 100 units/mL penicillin and 100 µg/mL streptomycin; PC-3 cells were maintained in Kahn's Modification containing 10% FBS, 100 units/mL penicillin and 100 µg/mL streptomycin; and U2OS cells were maintained in DMEM containing 10% FBS, 100 units/mL penicillin and 100 µg/mL streptomycin.
# as §4
# [4] = system: HCT-116 colon carcinoma; assay: as above; assay type: cell-based; conditions: Homo sapiens, 72 h; 3-day exposure, HCT-116 cells; read-out: IC50 values (average ± S.D.) HCT-116
# Excerpt: as §1, §2, §5, §4
# [5] = system: PC-3 prostate carcinoma; assay: as above; assay type: cell-based; conditions: Homo sapiens, 72 h; 3-day exposure, PC-3 cells; read-out: IC50 values (average ± S.D.) PC-3
# Excerpt: as §1, §2, §5, §4
# [6] = system: U2OS osteosarcoma; assay: as above; assay type: cell-based; conditions: Homo sapiens, 72 h; 3-day exposure, U2OS cells; read-out: IC50 values (average ± S.D.) U2OS
# Excerpt: as §1, §2, §5, §4
# [7] = system: MDA-MB-435 tumor xenografts; assay: Human tumor xenograft growth inhibition in athymic nude mice; assay type: in vivo; conditions: 2 mg/kg iv, 3X/week for 3 weeks
# Description: Utilizing this model, one can measure the ability of test compounds to inhibit the growth of human tumor xenografts growing subcutaneously (s.c.) in athymic nude mice. The histologic tumor type employed was MDA-MB-435 breast carcinoma for Ex.1 and 7 and A549 non-small cell lung carcinoma for Ex. 1-3.
# MDA-MB-435 human breast carcinoma: Treatments were started 15 d post implantation (3 x 10^6 cells/mouse), when a mean tumor volume of approximately 45 mm^3 was reached. Ex.1 and 7 were administered iv at three times per week for 3 weeks (days 15, 17, 20, 22, 24, 27, 29, and 31), at 3.3, 10, and 33 µmol/kg. Doxorubicin was administered iv at 2 mg/kg using the same schedule. Each data point represents tumor growth (mean ± SEM), or body weight (mean), with an initial group size of n = 8, from a representative experiment performed twice. An asterisk (*) indicates p < 0.05 using a one-tailed Student's t-test.
# Toxicity was monitored by recording average group body weights twice weekly, and by daily observation of general health. Efficacy was monitored by taking measurements of tumor length, width, and depth weekly using digital calipers coupled to automated data collectors. Mean tumor volume (MTV) at initiation of therapy was subtracted from final MTV in order to express the actual tumor growth during treatment (A MTV). Anti-tumor activity was expressed as %T/C (A MTV of treated group ÷ Δ MTV of control group X100%). Statistical significance was evaluated using a one-tailed Student's t-test (p<0.05).
SMILES,IC50 [1] [nM],IC50 [2] [nM],IC50 [3] [nM],IC50 [4] [nM],IC50 [5] [nM],IC50 [6] [nM],Dead/Total [7],Δ MTV [7] [mm^3],%T/C ([7]; * = p<0.05)
"COc1cccc2c1C(=O)c1c(O)c3c(c(O)c1C2=O)C[C@@](O)(C(=O)CO)C[C@@H]3O[C@H]1C[C@H](N)[C@H](O)[C@H](C)O1 [doxorubicin, reference compound]",400 ± 10,500 ± 160,430 ± 290,80 ± 60,330 ± 120,130 ± 30,0/8,82,46* %
"CO[C@@H](C(=O)N[C@H]1CC[C@@H](OC(=O)OCc2ccccc2)CNC1=O)[C@H](O)[C@@H](O)[C@H](O)/C=C/C(C)(C)C [Ex. 4, (2R, 3R, 4S, 5R, 6E)-3,4,5-trihydroxy-2-methoxy-8,8-dimethyl-N-[(3S, 6R)-hexahydro-2-oxo-6-([[phenylmethoxy]carbonyl]oxy)-2H-azepin-3-yl]non-6-enonamide]",130 ± 70,158 ± 16,170 ± 130,80 ± 10,80,250 ± 140,–,–,–
